Experiment [1] deals with hippocampal cultures. Briefly: Synaptophysin staining and surface GluA1-synaptophysin colocalization. Particulars: for colocalization between surface GluA1 and synaptophysin immunostaining: control 43±5.4%; for synaptophysin staining: leptin 50 nM, 30 min. Type of experiment: cell-based, Sprague Dawley rats. On the procedure:
Hippocampal cultures were prepared from neonatal Sprague Dawley rats as before (O'Malley et al. 2007). Briefly, neonatal Sprague Dawley rats (1-3 days old) were killed by cervical dislocation in accordance with Schedule 1 of the United Kingdom Government Animals (Scientific Procedures) Act, 1986 and the hippocampi removed. After washing in HEPES buffered saline (HBS) comprising (mM): NaCl 135; KCl 5; CaCl2 1; MgCl2 1; HEPES 10; D-glucose 25 at pH 7.4; cells were treated with protease Type X and Type XIV (0.5 mg/ml; Sigma) for 25 min at room temperature. Dissociated cells were plated onto sterile dishes (Falcon 3001) treated with poly-1-lysine (20 μg/ml; 1-2 h) and maintained in MEM with serum replacement-2 (Sigma) in a humidified atmosphere of 5% CO2 and […] at 37° C. for up to 3 weeks.
To monitor GluA1 surface expression, immunocytochemistry was performed on hippocampal cultures (7-14 DIV) as before (Moult et al. 2010). […] Neurons were then fixed with 4% paraformaldehyde (5 min) before adding an appropriate fluorescently labelled secondary.
As excitatory synaptic strength is governed by the density of AMPA receptors expressed at synapses, the effects on synaptic AMPA receptors was examined by comparing the colocalization between surface GluA1 and synaptophysin immunolabelling in hippocampal cultures (Moult et al. 2010). […] Similarly, in hippocampal neurons treated with leptin (116-130), synaptophysin staining was increased to 122±9% (n=36; P<0.05) and a significant increase (to 64±4.9%; n=36; P<0.01) in GluA1-synaptophysin colocalization was observed (FIG. 2E). Conversely, exposure to leptin (22-56) had no significant effect on either synaptophysin staining (105±9%; n=36; P>0.05) or the degree of colocalization (49±5.4%; n=36; P>0.05; FIG. 2E).

The test system of experiment [2] is GluA1 surface expression in cultured hippocampal neurons. As to the kind of experiment: Surface labelling of AMPA receptor subunit GluA1 (immunocytochemistry). Type of experiment: cell-based, Sprague Dawley rats. To be noted: for GluA1 surface expression, hexamer study: 10 nM, 15 min; for GluA1 surface expression, agent alone (PTEN study): bpV 50 nM, 30 min.
Experiment [3] deals with differentiated SH-SY5Y human neuronal cells. Briefly: MTT assay of mitochondrial activity (cell viability). Type of experiment: cell-based. To be noted: 10 nM; n=11. On the procedure: The human neuroblastoma cell line, SH-SY5Y (ECACC, UK) was maintained in Dulbecco's Modified Eagle Medium supplemented with glucose ([…]) and 10% (v/v) cosmic calf serum (Fisher Scientific, UK) at 37° C. in a humidified atmosphere of 5% CO2, 95% air and allowed to reach 70-80% confluence before seeding. Cells (passage 10-18) were plated at 10 000 cells per well in 96 well tissue culture plates (Nunc, VWR, UK) and at a density of 2×10^5 cells in 35 mm dishes for protein extraction. To induce differentiation, cells were cultured in DMEM supplemented with glucose ([…]), 1% (v/v) cosmic calf serum and 10 μM retinoic acid for 5 days. Thereafter they were incubated in DMEM supplemented with glucose ([…]), serum replacement 2 (2%; Sigma, UK) and 18 μM 5-fluorodeoxyuridine to inhibit proliferation of undifferentiated cells. The 50% of the medium was changed every 2-3 days and pharmacological treatment was carried out 7 days after switching to this medium. Reagents used were (from Sigma UK unless stated) 0.1-10 nM human leptin and leptin (116-130); 0.1-10 nM leptin (22-56; Bachem; Switzerland); 10 nM leptin (116-121) leptin (117-122), leptin (124-129) or leptin (125-130; all Severn Biotech, UK); 5 μM copper chloride; […], 5 μM WP1066 or 50 nM wortmannin. All treatments were added to the culture at the same time and survival assays were carried out after 96 h treatment. Protein samples for signaling ELISA were extracted 3 h after exposure to the relevant reagents and for biomarker expression after 72 hours.
The concentration of lactate dehydrogenase (LDH) in the culture medium or the mitochondrial activity within cells was used to monitor the level of cell death, as previously (Oldreive and Doherty 2010). In certain experiments, a Crystal violet assay was used to assess total cell number. Cells were fixed in neutral buffered formalin and washed 3 times in PBS prior to staining with 0.01% crystal violet acetate for 5 min. Plates were washed 5-10 times in dH2O and cells solubilised in 100 μl dimethyl sulfoxide (DMSO) before reading the absorbance on a Biohit BP100 plate reader. For all assays, data is expressed as percentage relative to control, untreated wells to normalize for differences in plating density between individual experiments.
To confirm the findings of the LDH assay, cells were treated with Aβ1-42 alone or with a 10 nM of leptin, leptin (116-130) or the listed hexamers, and mitochondrial activity, as a measure of cell viability, determined by MTT assay. A significant increase in mitochondrial activity was detected following treatment with either leptin or leptin (116-130; both 10 nM). […] Thus for Aβ1-42-treated cells, 10 nM leptin and 10 nM leptin (116-130) increased mitochondrial activity by 32.6±5.2% and 40.9+5.8% respectively compared with Aβ1-42 alone (n=11; P<0.001; FIG. 11B); an effect that was mirrored by 10 nM leptin (116-121) and leptin (117-122); 43.61±3.9% and 40.5±3.7*% (n=11; P<0.001; FIG. 11B), but not by 10 nM leptin (124-129) or leptin (125-130) (n=11; P>0.5; FIG. 11B). This reinforces the findings from the LDH assay that similar to either leptin or leptin (116-130), treatment with leptin (116-121) or leptin (117-122) reduces neuronal death in response to AD-linked toxins in vitro.

For “leptin (22-56): leptin fragment amino acids 22-56 (Bachem), comparison fragment (VPIQKVQDDTKTLIKTIVTRINDISHTQSVSSKQK; UniProt P41159 22-56, looked up, fragment) [reference compound]”, in experiment [1], the “colocalization between surface GluA1 and synaptophysin immunostaining” value is reported as 49±5.4%; the synaptophysin staining is 105±9 % of control.

In the case of “CSLPQT (listed as Mus musculus) [leptin (117-122)]”, the “GluA1 surface expression, hexamer study” value in experiment [2] is 167±10 % of control. The “increase in mitochondrial activity compared with Aβ1-42 alone” value (“increase in mitochondrial activity” below) in experiment [3] was determined as 40.5±3.7%.

With “leptin: the metabolic hormone leptin, whole (full length) leptin molecule; human leptin from Sigma in SH-SY5Y work”, in experiment [1], the “colocalization between surface GluA1 and synaptophysin immunostaining” value was 62±4.4%; the synaptophysin staining is reported as 144±9 % of control. Further, the “GluA1 surface expression, agent alone (PTEN study)” value in experiment [2] is 140±7.2 % of control. Moreover, the “increase in mitochondrial activity” value in experiment [3] was 32.6±5.2%.

Regarding “SCSLPQ (listed as Mus musculus) [leptin (116-121)]”, the “GluA1 surface expression, hexamer study” value in experiment [2] is 146±9 % of control. In addition, in experiment [3], the “increase in mitochondrial activity” value is given as 43.61±3.9%.

Regarding “SCSLPQTSGLQKPES (listed as Mus musculus) [leptin (116-130)]”, in experiment [1], the “colocalization between surface GluA1 and synaptophysin immunostaining” value amounted to 64±4.9%; the synaptophysin staining was 122±9 % of control. In experiment [2], the “GluA1 surface expression, hexamer study” value is reported as “increased GluA1 surface labelling” and the “GluA1 surface expression, agent alone (PTEN study)” value is on record as 167±10 % of control. In addition, in experiment [3], the “increase in mitochondrial activity” value is given as 40.9 ± 5.8%.

Values taken from patent publication US20200255492A1, “LEPTIN PEPTIDES AND THEIR USE FOR TREATING NEUROLOGICAL DISORDERS” (UNIVERSITY OF DUNDEE, priority 2017, published 2020).
